Assay type in all cases: cell-based
One test concerns Botrytis cinerea. The experiment in a line: Microtest: activity against the grey mold pathogen Botrytis cinerea. The conditions noted are these: single compound, 7 days; for inhibition of growth at 0.25 ppm / inhibition of growth at 1 ppm / inhibition of growth at 4 ppm: Botrytis cinerea, 168 h, read-out: Observed efficacy.
Another test relates to Septoria tritici. Put plainly: Microtest: activity against the wheat leaf blotch pathogen Septoria tritici. The conditions noted are these: single compound, 7 days.
The next test concerns Pyricularia oryzae. The experiment in a line: microbe, parasite or virus in culture.
In a further test the test system is Alternaria solani. Put plainly: Microtest: activity against the early blight pathogen Alternaria solani. The conditions noted are these: single compound, 7 days.
For a further test, the system named is Phytophthora infestans. Conditions: single compound, 7 days.
The mark [1] stands for this setting: Zymoseptoria tritici, 168 h, read-out: Observed efficacy.
Where [2] appears, read: Pyricularia oryzae, 168 h, read-out: Observed efficacy.
Setting [3] is: Zymoseptoria tritici, 168 h, 0.063 ppm, read-out: Observed efficacy.
The mark [4] stands for this setting: Zymoseptoria tritici, 168 h, 0.25 ppm, read-out: Observed efficacy.

Read-outs that look alike come from different tables or passages of the source.

Turning to `CON=C(C(=O)OC)c1ccccc1CON=C(C)c1cccc(C(F)(F)F)c1` [II-17, Trifloxystrobin, reference compound], the inhibition of growth at 0.25 ppm in the test with Botrytis cinerea (0.25 ppm) stood at 19%. Also, in the test on Septoria tritici (setting [1]), the inhibition of growth at 0.004 ppm came to 40%. Moreover, the inhibition of growth at 0.016 ppm in the test on Pyricularia oryzae (setting [2]) came to 24%. This molecule yielded an Observed efficacy in the test with Alternaria solani (0.063 ppm) of 48%.
With `CC(C)CC(C)c1sccc1NC(=O)c1cn(C)nc1C(F)(F)F` (stereo not shown) [II-10, Penthiopyrad, reference compound], in the test with Septoria tritici (Zymoseptoria tritici, 168 h, 0.016 ppm, read-out: Observed efficacy), the inhibition of growth at 0.016 ppm worked out at 30%.
With `Fc1ccc(F)c2c(NCCc3ccc(Oc4cc(C(F)(F)F)ccn4)cc3)ncnc12` [Compound I-5, (5,8-Difluoro-quinazolin-4-yl)-{2-[4-(4-trifluoromethyl-pyridin-2-yloxy)-phenyl]-ethyl}-amine], the inhibition of growth at 1 ppm with Botrytis cinerea is 14%. Moreover, the inhibition of growth at 4 ppm in the test on Botrytis cinerea is 22%. For the same molecule, the inhibition of growth at 0.063 ppm in the test on Septoria tritici (setting [3]) was 37%; in the test with Pyricularia oryzae (setting [2]), 54%. Also, the inhibition of growth at 0.25 ppm was found to be 40% with Septoria tritici (setting [4]) and 59% in the test on Pyricularia oryzae (setting [2]). Also, the inhibition of growth at 0.016 ppm in the test on Pyricularia oryzae (setting [2]) was 36%. The Observed efficacy is on record as 49% in the test with Phytophthora infestans (1 ppm), 37% in the test with Alternaria solani (0.25 ppm) and 38% with Alternaria solani (1 ppm).
For the molecule `Fc1ccc(Oc2ccnc3cc(Cl)cc(Cl)c23)cc1` [II-15, Quinoxyfen, reference compound], in the test with Septoria tritici (setting [1]), the inhibition of growth at 1 ppm turned out to be 10%. Also, the inhibition of growth at 16 ppm with Pyricularia oryzae (setting [2]) was 9%.
With `CO/C=C(/C(=O)OC)c1ccccc1Oc1cc(Oc2ccccc2C#N)ncn1` [II-1, Azoxystrobin, reference compound], the Observed efficacy in the test on Botrytis cinerea (0.25 ppm) amounted to 12%; in the test on Septoria tritici (0.063 ppm) it was 54%; with Septoria tritici (0.25 ppm), 73%; in the test on Pyricularia oryzae (0.004 ppm, single compound, 7 days), 12%.
In the case of `COc1cc(CCNc2ncnc3c(F)ccc(F)c23)ccc1Oc1cc(C(F)(F)F)ccn1` [Compound I-18, (5,8-Difluoro-quinazolin-4-yl)-{2-[4-(4-trifluoromethyl-pyridin-2-yloxy)-3-methoxy-phenyl]-ethyl}-amine], the inhibition of growth at 1 ppm is 11% with Botrytis cinerea and 44% with Septoria tritici (setting [1]). Moreover, in the test on Botrytis cinerea, the inhibition of growth at 4 ppm is 24%. Also, the inhibition of growth at 0.063 ppm with Septoria tritici (setting [3]) worked out at 41%; with Pyricularia oryzae (setting [2]) it was 49%. Moreover, the results for the inhibition of growth at 0.25 ppm with Septoria tritici (setting [4]) and in the test on Pyricularia oryzae (setting [2]) were 44% and 54%, respectively. Besides, the inhibition of growth at 0.016 ppm in the test with Pyricularia oryzae (setting [2]) was determined as 41%. Moreover, the Observed efficacy is on record as 50% with Phytophthora infestans (1 ppm), 43% in the test with Alternaria solani (0.25 ppm) and 44% in the test on Alternaria solani (1 ppm).
Consider `Fc1ccc([C@]2(Cn3cncn3)O[C@H]2c2ccccc2Cl)cc1` (racemic) [II-4, Epoxiconazole, reference compound], for which, in the test with Botrytis cinerea (0.25 ppm), the inhibition of growth at 0.25 ppm was determined as 40%.
In the test on Septoria tritici (0.063 ppm), `Cn1cc(C(=O)Nc2ccc(F)cc2-c2ccc(Cl)c(Cl)c2)c(C(F)F)n1` [II-2, Bixafen, reference compound] returned an Observed efficacy of 40%.
On to `COc1cc(CCNc2ncnc3c(F)cc(F)c(F)c23)ccc1Oc1cc(C(F)(F)F)ccn1` [Compound I-19, (5,6,8-Trifluoro-quinazolin-4-yl)-{2-[4-(4-trifluoromethyl-pyridin-2-yloxy)-3-methoxy-phenyl]-ethyl}-amine], for which, in the test on Botrytis cinerea, the inhibition of growth at 1 ppm worked out at 12% and the inhibition of growth at 4 ppm was found to be 15%. Further, in the test on Septoria tritici (setting [3]), the inhibition of growth at 0.063 ppm stood at 40%. The inhibition of growth at 1 ppm in the test with Septoria tritici (setting [1]) was 41%. Also, in the test on Pyricularia oryzae (setting [2]), the inhibition of growth at 0.016 ppm turned out to be 29%, the inhibition of growth at 0.063 ppm stood at 51%, the inhibition of growth at 0.25 ppm was 53% and the inhibition of growth at 4 ppm is 71%. The Observed efficacy in the test with Phytophthora infestans (1 ppm) was determined as 47%. Besides, the Observed efficacy in the test with Alternaria solani (1 ppm) came to 40%.
As to `N#Cc1c(Cl)c(Cl)c(Cl)c(C#N)c1Cl` [II-3, Chlorothalonil, reference compound], in the test with Botrytis cinerea, the inhibition of growth at 1 ppm was found to be 66%.
As for `Fc1ccc(F)c2c(NCCc3ccc(Oc4cc(C(F)(F)F)ncn4)cc3)ncnc12` [Compound I-3, (5,8-Difluoro-quinazolin-4-yl)-{2-[4-(6-trifluoromethyl-pyrimidin-4-yloxy)-phenyl]-ethyl}-amine], in the test on Botrytis cinerea, the inhibition of growth at 1 ppm worked out at 22%. The inhibition of growth at 4 ppm in the test with Botrytis cinerea was determined as 35%; in the test with Pyricularia oryzae (setting [2]) it was 72%. The inhibition of growth at 0.063 ppm stood at 30% in the test with Septoria tritici (setting [3]) and 45% in the test on Pyricularia oryzae (setting [2]). The inhibition of growth at 0.25 ppm in the test on Septoria tritici (setting [4]) stood at 33%; with Pyricularia oryzae (setting [2]) it was 43%. Further, in the test with Pyricularia oryzae (setting [2]), the inhibition of growth at 0.016 ppm is 34%. Besides, the Observed efficacy was determined as 47% in the test on Phytophthora infestans (1 ppm), 38% in the test with Alternaria solani (0.25 ppm) and 35% with Alternaria solani (1 ppm).
Turning to `COc1cc(CCNc2ncnc3c(F)ccc(F)c23)ccc1Oc1ncc(C(F)(F)F)cc1Cl` [Compound I-17, (5,8-Difluoro-quinazolin-4-yl)-{2-[4-(3-chloro-5-trifluoromethyl-pyridin-2-yloxy)-3-methoxy-phenyl]-ethyl}-amine], the inhibition of growth at 1 ppm in the test on Botrytis cinerea turned out to be 4%; in the test with Septoria tritici (setting [1]), 33%. Moreover, the inhibition of growth at 4 ppm in the test with Botrytis cinerea turned out to be 11%; in the test on Pyricularia oryzae (setting [2]), 69%. In addition, the results for the inhibition of growth at 0.25 ppm with Septoria tritici (setting [4]) and with Pyricularia oryzae (setting [2]) were 30% and 36%, respectively. Also, the inhibition of growth at 0.063 ppm in the test with Pyricularia oryzae (setting [2]) was found to be 14%. Besides, the Observed efficacy in the test on Phytophthora infestans (1 ppm) stood at 42%; with Alternaria solani (1 ppm), 26%.
Turning to `COC(=O)N(OC)c1ccccc1COc1ccn(-c2ccc(Cl)cc2)n1` [II-14, Pyraclostrobin, reference compound], the inhibition of growth at 0.25 ppm with Botrytis cinerea (0.25 ppm) turned out to be 20%. In addition, the inhibition of growth at 0.004 ppm in the test on Septoria tritici (setting [1]) came to 50%; in the test on Pyricularia oryzae (setting [2]) it was 39%. Further, the Observed efficacy in the test with Phytophthora infestans (0.063 ppm) was determined as 25%; in the test on Alternaria solani (0.016 ppm), 34%.

These data come from US20130040813A1 (priority 2010, published 2013).
